Measured values: patent US20140378551A1, “Composition for the Prophylactic Treatment of Neuropathic Pain” (Universite d'Auvergne, priority 2011, published 2014)
Where two headings read alike, the source gives them in different places.

What was measured:
[1] = system: neuropathic pain in patients; conditions: cited from earlier work
[2] = system: neuropathic pain induced by spinal nerve ligation among rats; experiment: Y-Maze test: spatial memory, spinal nerve ligation model; assay type: in vivo, rat
Protocol: The effects of the prolonged and preventive administration of memantine were first of all studied among rats. The model used was that of the ligation of the spinal nerve L5 (herein after called SNL for spinal nerve ligation) among rats. The emergence of neuropathic pain is assessed according to the following criteria: • the behavior of the rat following the spinal nerve ligation (SNL), • cognition, and • molecular events, including the expression of phosphorylated tyrosine 1472 of the NR2B sub-unit of the NMDA receptor at the spinal level.
The study was based on the comparison of the two main groups of animals. The first group was a control group. The rats of the control group, designated as “Sham” in the graphs, underwent no operation. They are used to assess the role of the injected substances on the individual, without there being any emergence of neuropathic pain.
Two sub-groups were set up in this group: • one sub-group treated with the vehicle which is a saline solution of NaCl 0.9% by mass, in a dose of 1 mL/kg/rat/day, by intraperitoneal injection; and • one sub-group treated with memantine in a dose of 20 mg/kg/rat/day, by intraperitoneal injection. […]
The rat is placed in the middle of a chamber with three arms, each 40 cm long and 4 cm wide. The rat moves around freely in the different arms for five minutes and the number of entries into each of the arms is counted up. […]

[3] = system: neuropathic pain in rats; conditions: sciatic nerve ligature or formalin injection, administered during or after the operation (Eisenberg 1995; Carlton 1995), cited from earlier work
[4] = system: tyrosine 1472 of the NR2B sub-unit of the NMDA receptor; experiment: Western blot of phosphorylated tyrosine 1472 of NR2B at the spinal level; assay type: in vivo, rat
Protocol: The effects of memantine are also evaluated in the expression of the phosphorylation of tyrosine 1472 of the NR2B sub-unit of the NMDA receptor at the spinal level by the Western-blot technique.
The rats are sacrificed by decapitation. The lumbar enlargements (L4-L6) are collected and subjected to lysis at 4° C. in 400 μL of stop buffer (50 mM Hepes, pH 7.5, containing 150 mM NaCl, 10 mM EDTA, 10 mM Na2P2O7, 2 mM Na3VO4, 100 mM NaF 1% Triton, 0.5 mM PMSF, 100 UI/mL Iniprol and 20 μM Leupeptine).
After sonication, two operations of centrifugation at 14,000 rpm at 4° C. are used to retrieve the proteins from the cytoplasm. The supernatant is retrieved and the proteins are determined by colorimetry (BC Assay UP40840A®, Interchim). They are denatured at 100° C. for five minutes in a buffer Tris 100 mM, pH 6.8, containing 6% SDS, 20% Glycerol and 20% bromophenol/(β-mercaptoethanol. Electrophoresis is used to separate the proteins on a polyacrylamide gel. The migration is done at 90 mA for two hours in the following buffer: Tris 50 mM, pH 7.4, containing 380 mM Glycine and 7 mM SDS. The proteins are then transferred to a nitrocellulose membrane (Millipore) for three hours in a buffer Tris 25 mM, pH 8.3, containing 190 mM Glycine, 20% methanol (percentage by volume). The protocols are carried out according to the recommendations of the supplier and differ according to the antibody considered.
After blocking of the non-specific sites with a solution containing 5% of non-fat dried milk, the membrane is incubated throughout the night at […] under agitation with the antibody of interest diluted in the blocking solution, namely an anti-pTyr^1472 NR2B antibody recognizing NR2B phosphorylated on tyrosine 1472 (dilution by volume=1/1000, Millipore).
The membrane is then hybridized for one hour under agitation with an antibody coupled with peroxydase (dilution by volume=1/10 000, Pierce) diluted in the blocking buffer.
The developing is done by chemiluminescence (Super Signal® West Pico
Chemiluminescent Substrate, Pierce). […]

CC12CC3CC(C)(C1)CC(N)(C3)C2 [memantine, 1-amino-3,5-dimethyl-adamantane]
relief to patients with amputated limb or nerve lesions following surgery ([1]; Nikolajsen et al., 2000): inefficacious | effect in patients who had undergone amputation ([1]; administered just after the operation (Buvanendran et al, 2008)): beneficial effect | capacity of exploration (time passed in exploring the arms) ([2]; SNL rats, memantine for the 4 days preceding operation and days following): this capacity is restored | capacity of exploration (time passed in exploring the arms) ([2]; rats without ligation, injection for one week, compared with normal rats): does not significantly modify the capacity of exploration of the rat | development of neuropathic pain in rats [3]: limits the appearance of symptoms of neuropathic pain but only dose-dependently and only for a determined period of time | development of neuropathic pain in rats ([3]; listed as Memantine): positive effect in the development of neuropathic pain in rats | rate of phosphorylation of the tyrosine 1472 residue of NR2B ([4]; SNL rats treated preventively, spinal cord, Western blot): equivalent firstly to that of the non-treated Sham rats and is secondly far lower than that of the operated rats that have not been treated with memantine | phosphorylation of the tyrosine 1472 residue of NR2B ([4]; Sham rats, spinal cord, Western blot): does not significantly diminish the phosphorylation of the tyrosine 1472 residue | phosphorylation of the tyrosine residue at position 1472 (pTyr1472) of NR2B ([4]; summary statement): significantly inhibits the phosphorylation
